Measurements taken from patent US20210052703A1 (SHANGHAI BENEMAE PHARMACEUTICAL CORPORATION, priority 2018, published 2021).

Assays:
Sprague-Dawley (SD) rats = assay: stomach emptying and carbon powder propelling in SD rats (Example 1); assay type: in vivo, rat; details: X ± SE
Protocol: Each group had 10 rats, half male and half female. The tails of the rats were labeled as follows:
The dose selection is calculated based on human dose. The clinical human dose is estimated to be about 0.4 mg/injection, one injection per day, which corresponds to 36 μg/kg rat dose, calculated based on the body surface area. Accordingly, the rats were tested at a medium dose of 30 μg/kg, a low dose at 50% of the medium dose, and a high dose at 200% of the medium dose. The clinical human dose of liraglutide for treating obesity is 3.0 mg/injection, one injection per day, which corresponds to 270 μg/kg rat dose, calculated based on the body surface area.
The positive control was liraglutide injectable formulation, which was stored in dark, sealed condition. The rats were raised and kept at the Laboratory Animal Center, Shanghai University of Traditional Chinese Medicine.
The injectable formulations were made and diluted at the time of experiment, as follows:
The rats were fasted for 16 hours with only water provided. Before being divided into groups, the rats were weighed and weights were recorded (cage numbering and tail labeling). Based on the body weight, the rats were randomly divided into 5 groups, 10 in each group, half male and half female.
The rats were administered with appropriate amounts of Beinaglutide or liraglutide based on their body weights by subcutaneous injection. Female rats were injected after male rats, in the order of their group numbers: 101, 201, 301, 401, 501, 102, 202, 302, 402, 502, etc. The formulations were injected to the rats by lifting the skin in the back, placing the needle of the syringe subcutaneously and injecting. When retrieving the needle, the site of injection was pressed with hand to avoid leakage of the formulation. The amount of injection is about 0.1 ml/100 g body weight.

[1] = trials 5A and 5B: time course of action and adverse events; assay type: in vivo, human
[2] = tested on: rabbits with normal glycemic index; assay: glucose-induced high blood sugar in rabbits; assay type: in vivo
rats = assay: blood sugar increase induced by alloxan and streptozotocin in rats; assay type: in vivo
[3] = tested on: animals having a normal level of blood sugar; assay: blood sugar and insulin in animals having a normal level of blood sugar; assay type: in vivo
type 2 diabetic patients [4] = assay: trial 5A: Beinaglutide with glipizide in type 2 diabetic patients; assay type: in vivo, human
[5] = pharmacokinetic studies in monkey models; details: in vivo, sc
type 2 diabetic patients [6] = assay: trial 5B: Beinaglutide with metformin in type 2 diabetic patients
[7] = female rats, Beinaglutide 15 μg/kg subcutaneous
[8] = female rats, Beinaglutide 30 μg/kg subcutaneous
[9] = female rats, Beinaglutide 60 μg/kg subcutaneous
[10] = male rats, Beinaglutide 15 μg/kg subcutaneous
[11] = male rats, Beinaglutide 30 μg/kg subcutaneous
[12] = male rats, Beinaglutide 60 μg/kg subcutaneous

For `CC[C@H](C)[C@H](NC(=O)[C@H](Cc1ccccc1)NC(=O)[C@H](CCC(=O)O)NC(=O)[C@H](CCCCN)NC(=O)[C@H](C)NC(=O)[C@H](C)NC(=O)[C@H](CCC(N)=O)NC(=O)CNC(=O)[C@H](CCC(=O)O)NC(=O)[C@H](CC(C)C)NC(=O)[C@H](Cc1ccc(O)cc1)NC(=O)[C@H](CO)NC(=O)[C@H](CO)NC(=O)[C@@H](NC(=O)[C@H](CC(=O)O)NC(=O)[C@H](CO)NC(=O)[C@@H](NC(=O)[C@H](Cc1ccccc1)NC(=O)[C@@H](NC(=O)CNC(=O)[C@H](CCC(=O)O)NC(=O)[C@H](C)NC(=O)[C@@H](N)Cc1cnc[nH]1)[C@@H](C)O)[C@@H](C)O)C(C)C)C(=O)N[C@@H](C)C(=O)N[C@@H](Cc1c[nH]c2ccccc12)C(=O)N[C@@H](CC(C)C)C(=O)N[C@H](C(=O)N[C@@H](CCCCN)C(=O)NCC(=O)N[C@@H](CCCNC(=N)N)C(=O)O)C(C)C` [Beinaglutide], the “% of Gastric Remains” value (Sprague-Dawley (SD) rats; [7]) was 96.81 ± 11.61 %, the “Gross Weight of Stomach” value (Sprague-Dawley (SD) rats; [7]) was 3.10 ± 0.22 g and the “Propelling Distance of Carbon Powder” value (Sprague-Dawley (SD) rats; [7]) was 41.96 ± 5.30 cm. For the same compound, the “Propelling Rate of Carbon Powder” value (Sprague-Dawley (SD) rats; [7]) was 46.97 ± 5.54 %, the “% of Gastric Remains” value (Sprague-Dawley (SD) rats; [8]) was 132.66 ± 16.34 % and the “Gross Weight of Stomach” value (Sprague-Dawley (SD) rats; [8]) was 3.78 ± 0.35 g. The “Propelling Distance of Carbon Powder” value (Sprague-Dawley (SD) rats; [8]) was 30.58 ± 3.66 cm, the “Propelling Rate of Carbon Powder” value (Sprague-Dawley (SD) rats; [8]) was 33.88 ± 3.98 % and the “% of Gastric Remains” value (Sprague-Dawley (SD) rats; [9]) was 141.53 ± 7.18 %. For the same compound, the “Gross Weight of Stomach” value (Sprague-Dawley (SD) rats; [9]) was 3.90 ± 0.15 g, the “Propelling Distance of Carbon Powder” value (Sprague-Dawley (SD) rats; [9]) was 5.40 ± 1.84 cm and the “Propelling Rate of Carbon Powder” value (Sprague-Dawley (SD) rats; [9]) was 5.94 ± 1.99 %. The “% of Gastric Remains” value (Sprague-Dawley (SD) rats; [10]) was 44.14 ± 17.18%, the “Gross Weight of Stomach” value (Sprague-Dawley (SD) rats; [10]) was 2.86 ± 0.52 g and the “Propelling Distance of Carbon Powder” value (Sprague-Dawley (SD) rats; [10]) was 64.22 ± 3.84 cm. For the same compound, the “Propelling Rate of Carbon Powder” value (Sprague-Dawley (SD) rats; [10]) was 61.80 ± 4.14%, the “% of Gastric Remains” value (Sprague-Dawley (SD) rats; [11]) was 54.92 ± 14.32% and the “Gross Weight of Stomach” value (Sprague-Dawley (SD) rats; [11]) was 3.08 ± 0.48 g. The “Propelling Distance of Carbon Powder” value (Sprague-Dawley (SD) rats; [11]) was 34.40 ± 5.91 cm, the “Propelling Rate of Carbon Powder” value (Sprague-Dawley (SD) rats; [11]) was 35.46 ± 6.15 % and the “% of Gastric Remains” value (Sprague-Dawley (SD) rats; [12]) was 128.70 ± 14.23 %. The “Gross Weight of Stomach” value (Sprague-Dawley (SD) rats; [12]) was 5.36 ± 0.52 g, the “Propelling Distance of Carbon Powder” value (Sprague-Dawley (SD) rats; [12]) was 11.90 ± 6.38 cm and the “Propelling Rate of Carbon Powder” value (Sprague-Dawley (SD) rats; [12]) was 12.28 ± 6.69 %. For the same compound, the adverse events ([1]; Beinaglutide clinical trials) was “mild to moderate nausea and vomiting”, the peak time ([1]; after administration (injection), type 2 diabetic patients) was 20 min and the half-life ([1]; human, in vivo, other: injection, type 2 diabetic patients, read-out: half-life (duration of action)) was ~15 min. For the same compound, the “effect on glucose-induced high blood sugar” value [2] was “lower glucose-induced high blood sugar”, the “effect on increase of blood sugar induced by alloxan and streptozotocin” value (rats) was “reduce the increase of blood sugar induced by alloxan and streptozotocin” and the “effect on blood sugar and blood insulin level” value [3] was “neither decreased blood sugar nor increased blood insulin level”. It also gave a BMI (type 2 diabetic patients [4]; 0.1 mg three times a day with glipizide, treatment for 2 weeks, FAS n = 24, before treatment 25.51 ± 2.59) of 25.53 ± 2.63 kg/m^2, a BMI (type 2 diabetic patients [4]; 0.1 mg three times a day with glipizide, treatment for 4 weeks, FAS n = 24, before treatment 25.51 ± 2.59) of 25.40 ± 2.64 kg/m^2 and a BMI (type 2 diabetic patients [4]; 0.1 mg three times a day with glipizide, treatment for 8 weeks, FAS n = 24, before treatment 25.51 ± 2.59) of 25.25 ± 2.57 kg/m^2. For the same compound, the BMI (type 2 diabetic patients [4]; 0.1 mg three times a day with glipizide, treatment for 12 weeks, FAS n = 24, before treatment 25.51 ± 2.59) was 25.20 ± 2.60 kg/m^2, the BMI (type 2 diabetic patients [4]; 0.15 mg three times a day with glipizide, treatment for 2 weeks, FAS n = 24, before treatment 25.66 ± 2.64) was 25.63 ± 2.57 kg/m^2 and the BMI (type 2 diabetic patients [4]; 0.15 mg three times a day with glipizide, treatment for 4 weeks, FAS n = 24, before treatment 25.66 ± 2.64) was 25.45 ± 2.63 kg/m^2. The BMI (type 2 diabetic patients [4]; 0.15 mg three times a day with glipizide, treatment for 8 weeks, FAS n = 24, before treatment 25.66 ± 2.64) was 25.19 ± 2.48 kg/m^2, the BMI (type 2 diabetic patients [4]; 0.15 mg three times a day with glipizide, treatment for 12 weeks, FAS n = 24, before treatment 25.66 ± 2.64) was 25.11 ± 2.60 kg/m^2 and the BMI (type 2 diabetic patients [4]; 0.2 mg three times a day with glipizide, treatment for 2 weeks, FAS n = 23, before treatment 26.71 ± 4.17) was 26.44 ± 4.14 kg/m^2. The BMI (type 2 diabetic patients [4]; 0.2 mg three times a day with glipizide, treatment for 4 weeks, FAS n = 23, before treatment 26.71 ± 4.17) was 26.52 ± 3.95 kg/m^2, the BMI (type 2 diabetic patients [4]; 0.2 mg three times a day with glipizide, treatment for 8 weeks, FAS n = 23, before treatment 26.71 ± 4.17) was 26.09 ± 4.04 kg/m^2 and the BMI (type 2 diabetic patients [4]; 0.2 mg three times a day with glipizide, treatment for 12 weeks, FAS n = 23, before treatment 26.71 ± 4.17) was 25.92 ± 3.95 kg/m^2. It also gave a half-life [5] of 15 to 30 min, a BMI (type 2 diabetic patients [6]; 0.1 mg three times a day with metformin, treatment for 2 weeks, FAS n = 73, Day 1 26.24 ± 3.31) of 26.12 ± 3.29 kg/m^2 and a BMI (type 2 diabetic patients [6]; 0.1 mg three times a day with metformin, treatment for 4 weeks, FAS n = 73, Day 1 26.24 ± 3.31) of 26.02 ± 3.33 kg/m^2. For the same compound, the BMI (type 2 diabetic patients [6]; 0.1 mg three times a day with metformin, treatment for 8 weeks, FAS n = 73, Day 1 26.24 ± 3.31) was 25.84 ± 3.25 kg/m^2, the BMI (type 2 diabetic patients [6]; 0.1 mg three times a day with metformin, treatment for 12 weeks, FAS n = 73, Day 1 26.24 ± 3.31) was 25.76 ± 3.21 kg/m^2 and the BMI (type 2 diabetic patients [6]; 0.2 mg three times a day with metformin, treatment for 2 weeks, FAS n = 70, Day 1 25.14 ± 3.10) was 25.03 ± 3.21 kg/m^2. For the same compound, the BMI (type 2 diabetic patients [6]; 0.2 mg three times a day with metformin, treatment for 4 weeks, FAS n = 70, Day 1 25.14 ± 3.10) was 24.85 ± 3.25 kg/m^2, the BMI (type 2 diabetic patients [6]; 0.2 mg three times a day with metformin, treatment for 8 weeks, FAS n = 70, Day 1 25.14 ± 3.10) was 24.54 ± 3.33 kg/m^2 and the BMI (type 2 diabetic patients [6]; 0.2 mg three times a day with metformin, treatment for 12 weeks, FAS n = 70, Day 1 25.14 ± 3.10) was 24.43 ± 3.42 kg/m^2.
